Marks after values point to notes of the source that are not given here.
Legend:
[1] = Apparent (surface) pKa of the LNP formulation (TNS assay); format: physicochemical; conditions: for Apparent pKa: Table 3G
Method in brief: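 LNP (0.04 mg/mL mRNA) mixed with TNS reagent in 21 buffers spanning about pH 3-12, in triplicate; fluorescence plotted against pH as sigmoidal curve. Apparent pKa taken as […] curve inflection point; validated in 1× PBS and 20 mM Tris w/8% sucrose.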

luciferase (Luc) mRNA = test: Luc expression, whole body bioluminescence after intravenous administration to mice; format: in vivo; conditions: for Fold increase in total body Luc Flux relative to MC3 at 6 h: Table 3A; for Total Flux 3 hours / Total Flux 6 hours / Total Flux 24 hours: mice, 0.5 mg/kg, Luc mRNA; for Total Flux 3 hours / Total Flux 6 hours / Total Flux 24 hours / i.v. Lipid/MC3 0.5 mpk, Luc, 6 h: i.v.; for i.v. Lipid/MC3 0.5 mpk, Luc, 6 h: Table 3B; for Novel lipid/MC3 expression ratio, 6 hr. time point, i.v. / Novel lipid/MC3 ratio, 6 hr. timepoint, i.v.: luciferase; for Novel lipid/MC3 expression ratio, 6 hr. time point, i.v.: relative to MC3 formulation; for Novel lipid/MC3 ratio, 6 hr. timepoint, i.v.: relative to MC3, Table 3G
Method in brief: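 Luc mRNA nanoparticle formulations given intravenously to mice (n=6) at 0.5 mg/kg; whole-body bioluminescence imaged at 3, 6 and 24 h. CD-1 mice received IP D-luciferin (200 μL of 15 mg/mL) 15 min before imaging; total flux quantified by region of interest.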

IP-10 = test: Cytokine induction in rats after intravenous administration; format: in vivo, rat; conditions: for IP-10: rats, 2.0 mpk, 6 hours, hEPO nanoparticle compositions; for IP-10 induction: rat, 48 hours after administration
Description: The expression of hEPO and cytokine induction in rats intravenously administered a nanoparticle composition at a dose of 2.0 mpk was measured at 6 h.
Table 19A summarizes the hEPO expression, IP-10 induction, liver and spleen levels, and alanine aminotransferase (ALT) and aspartate aminotransferase (AST) measured upon intravenous administration of formulations including Compounds 48, 49, and 50 to rat at 0.2 and 2 mpk and hEPO mRNA. hEPO concentrations were measured 6 hours after administration, while cytokine induction and liver and spleen levels were measured 48 hours after administration. hEPO and IP-10 concentrations are presented in pg/ml, while liver levels are provided in ng/g. ALT and AST levels are presented in international units.

hEPO mRNA [2] = test: hEPO expression after intramuscular administration to mice; format: in vivo; conditions: for Fold increase in hEPO concentration relative to MC3: mice, 0.01 mpk, 6 hr time point; for Novel lipid/MC3 expression ratio, 6 hr. time point, i.m. hEPO: relative to MC3 formulation; for Novel lipid/MC3 ratio, 6 hr. timepoint, i.m. hEPO: relative to MC3, Table 3G
Description: The expression of hEPO and cytokine induction in mice intravenously administered a nanoparticle composition at a dose of 0.5 mpk were measured at 3, 6, and 24 hours. […] The expression of hEPO in mice intramuscularly administered a nanoparticle composition from Table 1B at a dose of 0.01 mpk were measured at 3, 6, and 24 hours.
Blood collection and analysis for hEPO. Blood was collected from mice or rats via the tail vein and hEPO concentrations were determined using a hEPO ELISA assay.

luciferase mRNA = test: Luciferase expression after subcutaneous administration to mice; format: in vivo, female CD-1 mice; conditions: for Novel lipid/MC3 expression ratio, 6 hr. time point, s.c. Luc 0.5 mpk / Novel lipid/MC3 expression ratio, s.c. Luc 0.5 mpk (AUC): relative to MC3; for Novel lipid/MC3 expression ratio, 6 hr. time point, s.c. Luc 0.5 mpk / Novel lipid/MC3 expression ratio, s.c. Luc 0.5 mpk (AUC) / Lipid/MC3 AUC ratio / AUC (luciferase expression): 0.5 mpk; for Lipid/MC3 AUC ratio: luciferase; for AUC (luciferase expression): whole body BLI; for Novel lipid/MC3 ratio, s.c. Luc 6 hr.: relative to MC3, Table 3G
Method in brief: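 Female CD-1 mice given luciferase mRNA in lipid nanoparticle formulations subcutaneously at 0.5 mpk. Expression read by whole-body bioluminescence imaging at 3, 6 and 24 h, with ex vivo liver, spleen and injection-site luminescence at 24 h.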

hEPO mRNA [3] = test: hEPO expression after subcutaneous administration to mice; format: in vivo, female CD-1 mice; conditions: relative to MC3
Method in brief: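 Lipid nanoparticle formulations carrying hEPO or luciferase mRNA were given subcutaneously at 0.5 mpk to female CD-1 mice. Whole-body luminescence imaging was done at 3, 6 and 24 h. Liver, spleen and injection-site expression were assessed ex vivo at 24 h.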

pKa ([1]; Table 1A)	Apparent pKa [1]	SMILES	Fold increase in total body Luc Flux relative to MC3 at 6 h (luciferase (Luc) mRNA; i.v. administration)	Total Flux 3 hours (luciferase (Luc) mRNA)	Total Flux 6 hours (luciferase (Luc) mRNA)	Total Flux 24 hours (luciferase (Luc) mRNA)	i.v. Lipid/MC3 0.5 mpk, Luc, 6 h (luciferase (Luc) mRNA; 0.5 mpk)	Novel lipid/MC3 expression ratio, 6 hr. time point, i.v. (luciferase (Luc) mRNA; intravenous)	Fold increase in hEPO concentration relative to MC3 (hEPO mRNA [2])	Novel lipid/MC3 expression ratio, 6 hr. time point, i.m. hEPO (hEPO mRNA [2])	Novel lipid/MC3 expression ratio, 6 hr. time point, s.c. Luc 0.5 mpk (luciferase mRNA)	Novel lipid/MC3 expression ratio, 6 hr. time point, s.c. hEPO 0.5 mpk (hEPO mRNA [3])	Novel lipid/MC3 expression ratio, s.c. Luc 0.5 mpk (AUC) (luciferase mRNA)	Lipid/MC3 AUC ratio (luciferase mRNA)	AUC (luciferase expression) (luciferase mRNA)	Novel lipid/MC3 ratio, s.c. Luc 6 hr. (luciferase mRNA)	Novel lipid/MC3 ratio, 6 hr. timepoint, i.m. hEPO (hEPO mRNA [2])	further results
7.13	–	CCCCCCCCCOC(=O)CCCCCCCN(CCCCCCCC(=O)OC(CCCCCCCC)CCCCCCCC)CCCNC(=S)N(C)C [Compound 111, Heptadecan-9-yl 8-((3-(3,3-dimethylthioureido)propyl)(8-(nonyloxy)-8-oxooctyl)amino)octanoate]	–	1.89E+10	3.57E+10	8.86E+08	2.6	2.59	10.6	10.6	1.16	6.40	–	–	–	–	–	–
6.83	6.83	CCCCCCCCC(C)OC(=O)CCCCCN(CCO)CCCCCCCC(=O)OC(CCCCCCCC)CCCCCCCC (centres unmarked) [Compound 122, Heptadecan-9-yl 8-((6-(decan-2-yloxy)-6-oxohexyl)(2-hydroxyethyl)amino)octanoate]	–	3.64E+10	8.64E+10	1.95E+09	–	3.23	10.7	10.7	–	–	(AUC: 3.42)	3.42	5.8576E+10 (p/s) * h	4.12	10.7	Novel lipid/MC3 ratio, 6 hr. timepoint, i.v. (luciferase (Luc) mRNA; intravenous): 3.23
8.03	8.03	CCCCCCCCCOC(=O)CCCCCCCN(CCCCCCCC(=O)OC(CCCCCCCC)CCCCCCCC)CCCNC(=O)N(C)C [Compound 110, Heptadecan-9-yl 8-((3-(3,3-dimethylureido)propyl)(8-(nonyloxy)-8-oxooctyl)amino)octanoate]	–	1.89E+09	2.57E+09	1.11E+08	–	–	1.2	–	–	–	(AUC: 0.76)	0.76	1.2968E+10 (p/s) * h	0.78	1.2	–
7.78	7.78	CCCCCCCCCOC(=O)CCCCCCCN(CCCCCCCC(=O)OC(CCCCCCCC)CCCCCCCC)CCCNC(=O)NC [Compound 112, Heptadecan-9-yl 8-((3-(3-methylureido)propyl)(8-(nonyloxy)-8-oxooctyl)amino)octanoate]	–	9.69E+08	1.04E+09	2.75E+07	–	–	1.6	–	–	–	(AUC: 1.19)	1.19	2.0339E+10 (p/s) * h	1.33	1.6	–

The next lines start with the compound.

SMILES	pKa ([1]; Table 1A)	Apparent pKa [1]	Fold increase in total body Luc Flux relative to MC3 at 6 h (luciferase (Luc) mRNA; i.v. administration)	Total Flux 3 hours (luciferase (Luc) mRNA)	Total Flux 6 hours (luciferase (Luc) mRNA)	Total Flux 24 hours (luciferase (Luc) mRNA)	i.v. Lipid/MC3 0.5 mpk, Luc, 6 h (luciferase (Luc) mRNA; 0.5 mpk)	Novel lipid/MC3 expression ratio, 6 hr. time point, i.v. (luciferase (Luc) mRNA; intravenous)	Fold increase in hEPO concentration relative to MC3 (hEPO mRNA [2])	Novel lipid/MC3 expression ratio, 6 hr. time point, i.m. hEPO (hEPO mRNA [2])	Novel lipid/MC3 expression ratio, 6 hr. time point, s.c. Luc 0.5 mpk (luciferase mRNA)	Novel lipid/MC3 expression ratio, 6 hr. time point, s.c. hEPO 0.5 mpk (hEPO mRNA [3])	Novel lipid/MC3 expression ratio, s.c. Luc 0.5 mpk (AUC) (luciferase mRNA)	Lipid/MC3 AUC ratio (luciferase mRNA)	AUC (luciferase expression) (luciferase mRNA)	Novel lipid/MC3 ratio, s.c. Luc 6 hr. (luciferase mRNA)	Novel lipid/MC3 ratio, 6 hr. timepoint, i.m. hEPO (hEPO mRNA [2])	further results
CCCCCCCCCN(CCO)CCCCCCCC(=O)OC(CCCCCCCC)CCCCCCCC [Compound 3, Heptadecan-9-yl 8-((2-hydroxyethyl)(nonyl)amino)octanoate]	6.72	–	2.24	6.55E+10	7.37E+10	4.96E+09	–	–	–	–	–	–	–	–	–	–	–	pKa ([1]; Table 6): 6.72; Fold increase in Luc expression relative to MC3, Intravenous (0.5 mpk dose) (luciferase (Luc) mRNA; intravenous, 0.5 mpk): 2.24; IP-10 (IP-10): 542 pg/mL
CCCC/C=C\CCC(CC/C=C\CCCC)OC(=O)CCCCCCCN(CCO)CCCCCCCC(=O)OCCCCCCCCC [Compound 60, (5Z,12Z)-Heptadeca-5,12-dien-9-yl 8-((2-hydroxyethyl)(8-(nonyloxy)-8-oxooctyl)amino)octanoate]	6.73	–	–	7.91E+10	9.04E+10	2.90E+09	–	3.37	11.2	11.2	1.72	6.59	–	–	–	–	–	–
CCCCCC/C=C\COC(=O)CCCCCCCN(CCO)CCCCCCCC(=O)OC(CCCCCCCC)CCCCCCCC [Compound 24, Heptadecan-9-yl (Z)-8_((2-hydroxyethyl) (8-(non-2-en-1-yloxy)-8-oxooctyl)amino)octanoate]	6.71	–	2.67	1.72E+10	2.25E+10	1.83E+09	–	2.67	–	–	–	–	(AUC: 5.21)	5.21	8.9281E+10 (p/s) * h	5.79	–	Novel lipid/MC3 ratio, 6 hr. timepoint, i.v. (luciferase (Luc) mRNA; intravenous): 2.67; IP-10 (IP-10): 323.5 pg/mL
CCCCCCCCC(CCC)OC(=O)CCCCCCCN(CCO)CCCCCCCC(=O)OC(CCCCCCCC)CCCCCCCC (centres unmarked) [Compound 50, dodecan-4-yl 8-((8-(heptadecan-9-yloxy)-8-oxooctyl)(2-hydroxyethyl)amino)octanoate]	6.42	–	6.81	3.81E+10	7.49E+10	5.02E+08	–	–	–	–	–	–	–	–	–	–	–	flux measured at 6 h relative to the MC3 formulation (luciferase (Luc) mRNA; i.v. administration, in words): higher flux than MC3 formulations; IP-10 induction (IP-10; 0.2 mpk): 20 pg/mL; IP-10 induction (IP-10; 2 mpk): 1065 pg/mL
CCCCCCCCCOC(=O)CCCCCCCN(CCCCCCCC(=O)OC(CCCCCCCC)CCCCCCCC)CCCNS(C)(=O)=O [Compound 109, Heptadecan-9-yl 8-((3-(methylsulfonamido)propyl)(8-(nonyloxy)-8-oxooctyl)amino)octanoate]	6.78	–	–	3.82E+09	4.88E+09	8.06E+07	0.3	–	5.3	–	0.49	6.78	–	–	–	–	–	–
CCCCCCCCCOC(=O)CCCCCCCN(CCCCCCCC(=O)OC(CCCCCCCC)CCCCCCCC)CCCNC(C)=O [Compound 108, Heptadecan-9-yl 8-((3-acetamidopropyl)(8-(nonyloxy)-8-oxooctyl)amino)octanoate]	7.17	–	–	5.04E+09	5.53E+09	1.50E+08	0.4	–	3.7	–	0.22	–	–	–	–	–	–	–
